Earlier results on three compounds are cited in patent US12029741B1, “5 beta dihydrotestosterone pharmaceutical formulations and related methods” (priority 2021, dated 2024).

The conditions of data set [1]: transdermal treatment; called an estimate.
Another data set concerns Vascular Vessels. The following applies: result in words.

As for `C[C@]12CCC(=O)C[C@@H]1CC[C@@H]1[C@@H]2CC[C@]2(C)[C@@H](O)CC[C@@H]12` [5α-DHT, 5α-dihydrotestosterone], the terminal half-life in data set [1] was 2.83 h. Also, in the data set on Vascular Vessels, the “efficacy as a vasodilator compared with testosterone” value was “less efficacious than testosterone”.
Consider `C[C@]12CCC(=O)C[C@H]1CC[C@@H]1[C@@H]2CC[C@]2(C)[C@@H](O)CC[C@@H]12` [5β-DHT, 17β-hydroxy-5β-androstan-3-one], for which, in the data set on Vascular Vessels, the “efficacy as a vasodilator compared with testosterone” value is given as “more efficacious and/or potent than testosterone”.
For `C[C@]12CC[C@H]3[C@@H](CCC4=CC(=O)CC[C@@]43C)[C@@H]1CC[C@@H]2O` [testosterone], in data set [1], the terminal half-life is 1.29 h.
